Assay results: US12378268B2, “Heterocyclic THR-β receptor agonist compound and preparation method and use therefor” (Hepagene Therapeutics (HK) Limited, priority 2019, dated 2025)
Read-outs that look alike come from different tables or passages of the source.

What was measured:
THR-β = biological target: T1, THR-β (Homo sapiens, UniProt P10828); assay: Test of the binding ability of the compound to TRβ (TRβ LBD/RXR, biotin-SRC2-2 co-activating peptide, 665/615 nm fluorescence ratio); assay type: biochemical
T1 construct: TRB LBD, GST purchased from Thermo Fisher; purchased Thermo Fisher PV4762
T1 sequence (P10828 217-461 limits assumed, other chains not shown): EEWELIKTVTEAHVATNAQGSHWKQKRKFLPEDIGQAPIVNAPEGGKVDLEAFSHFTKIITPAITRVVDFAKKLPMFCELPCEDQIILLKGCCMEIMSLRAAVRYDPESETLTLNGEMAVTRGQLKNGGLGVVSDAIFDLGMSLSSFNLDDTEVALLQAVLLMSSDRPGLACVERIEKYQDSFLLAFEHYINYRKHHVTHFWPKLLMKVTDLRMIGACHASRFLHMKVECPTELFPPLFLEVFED
T1 sequence (P28702 whole entry partner, other chains not shown, the tested form may be a part): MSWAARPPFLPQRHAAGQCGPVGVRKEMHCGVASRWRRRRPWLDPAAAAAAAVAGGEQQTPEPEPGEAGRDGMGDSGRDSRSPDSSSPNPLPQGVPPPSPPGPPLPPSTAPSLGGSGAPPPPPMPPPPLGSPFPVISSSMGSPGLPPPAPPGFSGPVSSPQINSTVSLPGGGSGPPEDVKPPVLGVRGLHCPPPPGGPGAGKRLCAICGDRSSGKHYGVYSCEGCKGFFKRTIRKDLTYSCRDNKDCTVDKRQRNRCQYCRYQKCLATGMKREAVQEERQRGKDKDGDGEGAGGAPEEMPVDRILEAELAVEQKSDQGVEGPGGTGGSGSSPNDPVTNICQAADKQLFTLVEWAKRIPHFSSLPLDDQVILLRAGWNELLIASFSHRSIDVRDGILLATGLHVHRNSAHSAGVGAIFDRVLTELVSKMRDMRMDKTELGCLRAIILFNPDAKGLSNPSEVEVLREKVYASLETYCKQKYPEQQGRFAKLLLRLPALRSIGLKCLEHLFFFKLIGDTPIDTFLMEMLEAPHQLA
Procedure: 1. Main experimental materials and instruments:
Biotin-SRC2-2 co-activating peptide purchased from Sangon Biotech (Shanghai) Co., Ltd.
TRB LBD, GST purchased from Thermo Fisher (product No. PV4762)
Europium-conjugated anti-glutathione antibody purchased from Cisbio (product No. 61GSTKLB)
Streptavidin-D2 purchased from Cisbio (product No. 610SADAB)
(§1) 4.2 The activity percentage was calculated as follows: […]
(§2) RatioCompound: Average of the relative ratios of the compound wells of the embodiments
(§3) RatioPositive: Average of the relative ratios of all positive control wells.
(§4) RatioBlank: Average of the relative ratios of all negative control wells.
(§5) EC50 was calculated by fitting the relationship between activity (%) and compound logarithmic concentration with Graphpad 5.0 by a nonlinear regression method.
(§6) Y=Bottom+ (top-bottom)/(1+10^((LogEC50−X)*slope))
(§7) X: Compound logarithmic concentration Y: Percentage activity

THR-α = biological target: T2, THR-α (Homo sapiens, UniProt P10827); assay: Test of the binding ability of the compound to TRα (TRα LBD/RXRα, biotin-SRC2-2 co-activating peptide, 665/615 nm fluorescence ratio); assay type: biochemical
T2 construct: TR-a LBD, GST purchased from Thermo Fisher; purchased Thermo Fisher PV4762
T2 sequence (P10827 163-410 isoform P10827-2 limits assumed, other chains not shown): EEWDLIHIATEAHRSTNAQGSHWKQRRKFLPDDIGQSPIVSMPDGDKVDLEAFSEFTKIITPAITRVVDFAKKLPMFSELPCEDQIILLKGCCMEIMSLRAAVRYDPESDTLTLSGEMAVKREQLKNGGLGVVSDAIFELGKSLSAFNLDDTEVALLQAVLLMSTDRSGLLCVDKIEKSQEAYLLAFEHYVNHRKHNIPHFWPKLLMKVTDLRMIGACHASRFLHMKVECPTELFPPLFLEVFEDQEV
T2 sequence (P19793 whole entry partner, other chains not shown, the tested form may be a part): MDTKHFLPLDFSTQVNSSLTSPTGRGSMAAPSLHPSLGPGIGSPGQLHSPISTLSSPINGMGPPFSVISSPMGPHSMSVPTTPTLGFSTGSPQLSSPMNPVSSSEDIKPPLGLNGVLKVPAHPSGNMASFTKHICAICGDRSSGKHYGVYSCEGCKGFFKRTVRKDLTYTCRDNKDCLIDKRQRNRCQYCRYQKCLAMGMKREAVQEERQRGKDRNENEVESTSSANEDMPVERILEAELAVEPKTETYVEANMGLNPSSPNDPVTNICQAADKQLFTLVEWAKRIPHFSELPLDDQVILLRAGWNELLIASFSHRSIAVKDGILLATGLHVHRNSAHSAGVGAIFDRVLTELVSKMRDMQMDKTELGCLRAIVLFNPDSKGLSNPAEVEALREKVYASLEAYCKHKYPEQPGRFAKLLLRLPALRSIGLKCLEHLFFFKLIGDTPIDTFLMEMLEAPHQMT
Procedure: as §1, §2, §3, §4, §5, §6, §7

[1] = Drug metabolism experiment on prodrug in SD rats: plasma pharmacokinetic parameters; assay type: in vivo; settings: plasma; for AUC(0-inf) / AUC(0-t) / Tmax / half-life / Cmax: male, Sprague-Dawley (SD), rat, po, 3 mg/kg
Procedure: (§8) Test 3: Drug metabolism experiment on prodrug in SD rats
(§9) In the experiment, […] of 12 male SD rats having similar body weights were selected and orally administered compound 9, compound 10, and the control drug VK2809 (the prodrug of MB07444, structured as shown below) at a dose of 3 mg/kg at a single time, respectively, and blood and liver samples were collected at different time points.
(§10) Solutions of compound 9/compound 10 and VK2809 with a final concentration of 0.6 mg/mL were respectively prepared, and the ratio between the solvents used for the preparation was PEG400: pure water =50:50 (v/v).
(§11) No randomization was performed. The weights of the animals were measured before administration, and healthy animals with similar body weights were selected for inclusion in the experiment. The oral dose was 3 mg/kg.
(§12) At least 0.2 mL of blood was collected from the tail vein or jugular vein, and heparin sodium was used as the anticoagulant.
15 min, 30 min, 1 h, 2 h, 4 h, 6 h, 8 h, 24 h after administration.
(§13) After being collected, a blood sample was placed in a marked ice-water bath centrifuge tube, plasma was quickly separated by centrifugation under centrifugation conditions: 3500 rpm, 10 minutes, and 4° C., and the plasma was stored under −40° C. for testing.
(§14) Q TRAP6500 mass spectrometer with ESI source was used to perform negative ion MRM scanning. An LC-MS/MS analysis method was used to detect the contents of compound 9, compound 10 and its active metabolite 1, VK2809 and its active metabolite MB07444 in the plasma and liver. The metabolic kinetics data analysis software WinNonlin 7.0 was used to calculate the concentration data of plasma, and the non-compartmental model (NCA) method was used to calculate the pharmacokinetic parameters.

[2] = Drug metabolism experiment on prodrug in SD rats: concentration in liver compared with blood; assay type: in vivo; settings: for Kp at 1 h / Kp at 4 h / Kp at 8 h / Kp at 24 h / concentration at 1 h / concentration at 4 h / concentration at 8 h / concentration at 24 h: male, rat, po, 3 mg/kg, SD rats; for Kp at 1 h / Kp at 4 h / Kp at 8 h / Kp at 24 h: read-out: Liver-to-blood ratio
Procedure: as §8, §9, §10, §11, §12, §13
After the liver sample was collected, its surface was washed with normal saline, dried with medical gauze, placed in a labeled small ziplock bag, and stored under −40° C. for testing.
as §14
The parameters of concentration in the livers of the SD rats and a comparison with the concentration in plasma are shown in Table 3 below: […]

[3] = activity relative to positive control
[4] = Sprague-Dawley (SD), liver / plasma (heading prints blood), oral 3 mg/kg Compound 9
[5] = Sprague-Dawley (SD), liver / plasma (heading prints blood), oral 3 mg/kg Compound 10
[6] = Sprague-Dawley (SD), liver, oral 3 mg/kg Compound 9, read-out: Ct Liver
[7] = Sprague-Dawley (SD), liver, oral 3 mg/kg Compound 10, read-out: Ct Liver
[8] = Sprague-Dawley (SD), plasma (heading prints blood), oral 3 mg/kg Compound 10, read-out: Ct Blood
[9] = Sprague-Dawley, plasma, oral 3 mg/kg Compound 9, read-out: Ct Blood

With `Cc1cc(OCP(=O)(O)O)cc(C)c1Cc1ccc(O)c2c1CCC2(C)C` [Compound 1, ((4-((7-hydroxy-1,1-dimethyl-2,3-dihydro-1H-indene-4-position)methyl)-3,5-dimethylphenoxy)methyl) phosphoric acid] the EC50 (THR-β) was 12 nM, the Emax (THR-β; [3]) was 104% and the “α/β selectivity (multiple)” value (THR-β; calculated after being standardized with T3) was 7.0 multiple. For the same molecule, the “activity for THR-β compared with MB07444” value (THR-β; in words) was “much higher than that of the contrast compound MB07444”, the EC50 (THR-α) was 41 nM and the Emax (THR-α; [3]) was 96.4%. For the same molecule, the AUC(0-inf) ([1]; oral 3 mg/kg Compound 9) was 1350 ng·h/mL, the AUC(0-t) ([1]; oral 3 mg/kg Compound 9) was 1290 ng·h/mL and the Tmax ([1]; oral 3 mg/kg Compound 9) was 4.67 h. The half-life ([1]; oral 3 mg/kg Compound 9) was 4.82 h, the AUC(0-inf) ([1]; oral 3 mg/kg Compound 10) was 613 ng·h/mL and the AUC(0-t) ([1]; oral 3 mg/kg Compound 10) was 586 ng·h/mL. The Tmax ([1]; oral 3 mg/kg Compound 10) was 6.67 h, the half-life ([1]; oral 3 mg/kg Compound 10) was 4.59 h and the Cmax ([1]; oral 3 mg/kg Compound 9, read-out: Cmax) was 134 ng/mL. The Cmax ([1]; oral 3 mg/kg Compound 10, read-out: Cmax) was 45.1 ng/mL, the Kel ([1]; oral 3 mg/kg Compound 9) was 0.147 h⁻¹ and the Kel ([1]; oral 3 mg/kg Compound 10) was 0.154 h⁻¹. The “absolute concentration of active metabolite in the liver compared with control drug VK2809” value ([2]; after prodrug compound 9, in words) was “higher than that of the control drug VK2809”, the “liver-to-blood ratio compared with control drug” value ([2]; after prodrug compound 10, in words) was “significantly higher than that of the control drug” and the “absolute concentration of active metabolite in the liver compared with MB07444 from VK2809” value ([2]; after prodrug compound 10, same prodrug dose, in words) was “at least three times that of the active metabolite drug MB07444”. For the same molecule, the Kp at 1 h [2, 4] was 20.8, the Kp at 1 h [2, 5] was 29.1 and the Kp at 4 h [2, 4] was 16.2. For the same molecule, the Kp at 4 h [2, 5] was 20.6, the Kp at 8 h [2, 4] was 25.5 and the Kp at 8 h [2, 5] was 17.7. The Kp at 24 h [2, 4] was 47.1, the concentration at 1 h [2, 6] was 312 ng/g and the concentration at 1 h [2, 7] was 693 ng/g. The concentration at 4 h [2, 6] was 1560 ng/g, the concentration at 4 h [2, 7] was 2580 ng/g and the concentration at 8 h [2, 6] was 762 ng/g. It also gave a concentration at 8 h [2, 7] of 1710 ng/g, a concentration at 24 h [2, 6] of 396 ng/g and a concentration at 1 h [2, 8] of 5.4 ng/g. The concentration at 4 h [2, 8] was 28.4 ng/g, the concentration at 8 h [2, 8] was 43.6 ng/g and the concentration at 24 h [2, 8] was 3.83 ng/g. The concentration at 24 h ([2]; Sprague-Dawley, liver, oral 3 mg/kg Compound 10, read-out: Ct Liver) was 431 ng/g, the Kp at 24 h ([2]; Sprague-Dawley, liver/plasma, oral 3 mg/kg Compound 10) was 121 and the concentration at 1 h [2, 9] was 15 ng/g. It also gave a concentration at 4 h [2, 9] of 96.3 ng/g, a concentration at 8 h [2, 9] of 29.9 ng/g and a concentration at 24 h [2, 9] of 8.4 ng/g.
